Reference: patent US20260262643A1, “HERBICIDAL BENZOXAZINES” (FMC CORPORATION, priority 2022, published 2026)

Tests used:
barnyardgrass [1] = test: Test B flooded paddy test; type: in vivo, Echinochloa crus-galli; conditions: 250 g ai/ha, Flood, 13 days, 0 to 100 scale (0 no effect, 100 complete control)
Outline: (§1)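 Each species was raised to the 2-leaf stage. At treatment, each pot received floodwater 3 cm deep, with the chemical delivered into the water. Greenhouse holding followed for 13 days, then percent control was estimated visually versus untreated pots.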

foxtail, giant [2] = test: Test A preemergence; type: in vivo, Setaria faberi; conditions: 0 to 100 scale
Outline: (§2)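 Visual injury ratings on a 0–100 scale (100 = complete control) versus untreated controls, taken 10 days after treatment in greenhouse. Preemergence: directed soil spray onto seeded loam/sand. Postemergence: foliar application at one- to two-leaf stage, plants 2–10 cm. Formulation: non-phytotoxic solvent plus surfactant.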

ryegrass, Italian [3] = test: Test A preemergence; type: in vivo, Lolium multiflorum; conditions: 0 to 100 scale
Outline: as §2

ragweed [4] = test: Test A postemergence; type: in vivo, Ambrosia artemisiifolia; conditions: postemergence, 10 days; for Ragweed plant response rating: 125 g ai/ha, 0 to 100 scale, 0 no effect, 100 complete control; for Plant response rating, Ragweed: 500 g ai/ha, visual injury, 0 to 100 scale (0 no effect, 100 complete control)
Outline: as §2

galium = test: Test A postemergence; type: in vivo, Galium aparine; conditions: postemergence, 10 days; for Galium plant response rating: 125 g ai/ha, 0 to 100 scale, 0 no effect, 100 complete control; for Plant response rating, Galium: 500 g ai/ha, visual injury, 0 to 100 scale (0 no effect, 100 complete control)
Outline: as §2

soybean [5] = test: Test A preemergence; type: in vivo, Glycine max; conditions: 0 to 100 scale
Outline: as §2

pigweed, palmer [6] = test: Test A postemergence; type: in vivo, Amaranthus palmeri; conditions: postemergence, 10 days; for Pigweed, Palmer plant response rating: 125 g ai/ha, 0 to 100 scale, 0 no effect, 100 complete control; for Plant response rating, Pigweed, Palmer: 500 g ai/ha, visual injury, 0 to 100 scale (0 no effect, 100 complete control)
Outline: as §2

oat, wild [7] = test: Test A postemergence; type: in vivo, Avena fatua; conditions: postemergence, 10 days; for Oat, Wild plant response rating: 125 g ai/ha, 0 to 100 scale, 0 no effect, 100 complete control; for Plant response rating, Oat, Wild: 500 g ai/ha, visual injury, 0 to 100 scale (0 no effect, 100 complete control)
Outline: as §2

blackgrass [8] = test: Test A postemergence; type: in vivo, Alopecurus myosuroides; conditions: postemergence, 10 days; for Blackgrass plant response rating: 125 g ai/ha, 0 to 100 scale, 0 no effect, 100 complete control; for Plant response rating, Blackgrass: 500 g ai/ha, visual injury, 0 to 100 scale (0 no effect, 100 complete control)
Outline: as §2

horseweed = test: Test A postemergence; type: in vivo, Erigeron canadensis; conditions: postemergence, 10 days; for Horseweed plant response rating: 125 g ai/ha, 0 to 100 scale, 0 no effect, 100 complete control; for Plant response rating, Horseweed: 500 g ai/ha, visual injury, 0 to 100 scale (0 no effect, 100 complete control)
Outline: as §2

barnyardgrass [9] = test: Test A postemergence; type: in vivo, Echinochloa crusgalli; conditions: postemergence, 10 days; for Barnyardgrass plant response rating: 125 g ai/ha, 0 to 100 scale, 0 no effect, 100 complete control; for Plant response rating, Barnyardgrass: 500 g ai/ha, visual injury, 0 to 100 scale (0 no effect, 100 complete control)
Outline: as §2

oat, wild [10] = test: Test A preemergence; type: in vivo, Avena fatua; conditions: 0 to 100 scale
Outline: as §2

ducksalad = test: Test B flooded paddy test; type: in vivo, Heteranthera limosa; conditions: 250 g ai/ha, Flood, 13 days, 0 to 100 scale (0 no effect, 100 complete control)
Outline: as §1

kochia [11] = test: Test A preemergence; type: in vivo, Bassia scoparia; conditions: 0 to 100 scale
Outline: as §2

blackgrass [12] = test: Test A preemergence; type: in vivo, Alopecurus myosuroides; conditions: 0 to 100 scale
Outline: as §2

kochia [13] = test: Test A postemergence; type: in vivo, Bassia scoparia; conditions: postemergence, 10 days; for Kochia plant response rating: 125 g ai/ha, 0 to 100 scale, 0 no effect, 100 complete control; for Plant response rating, Kochia: 500 g ai/ha, visual injury, 0 to 100 scale (0 no effect, 100 complete control)
Outline: as §2

rice = test: Test B flooded paddy test; type: in vivo, Oryza sativa; conditions: 250 g ai/ha, Flood, 13 days, 0 to 100 scale (0 no effect, 100 complete control)
Outline: as §1

ragweed [14] = test: Test A preemergence; type: in vivo, Ambrosia artemisiifolia; conditions: 0 to 100 scale
Outline: as §2

foxtail, giant [15] = test: Test A postemergence; type: in vivo, Setaria faberi; conditions: postemergence, 10 days; for Foxtail, Giant plant response rating: 125 g ai/ha, 0 to 100 scale, 0 no effect, 100 complete control; for Plant response rating, Foxtail, Giant: 500 g ai/ha, visual injury, 0 to 100 scale (0 no effect, 100 complete control)
Outline: as §2

corn [16] = test: Test A preemergence; type: in vivo, Zea mays; conditions: 0 to 100 scale
Outline: as §2

soybean [17] = test: Test A postemergence; type: in vivo, Glycine max; conditions: postemergence, 10 days; for Soybean plant response rating: 125 g ai/ha, 0 to 100 scale, 0 no effect, 100 complete control; for Plant response rating, Soybean: 500 g ai/ha, visual injury, 0 to 100 scale (0 no effect, 100 complete control)
Outline: as §2

wheat [18] = test: Test A postemergence; type: in vivo, Triticum aestivum; conditions: postemergence, 10 days; for Wheat plant response rating: 125 g ai/ha, 0 to 100 scale, 0 no effect, 100 complete control; for Plant response rating, Wheat: 500 g ai/ha, visual injury, 0 to 100 scale (0 no effect, 100 complete control)
Outline: as §2

corn [19] = test: Test A postemergence; type: in vivo, Zea mays; conditions: postemergence, 10 days; for Corn plant response rating: 125 g ai/ha, 0 to 100 scale, 0 no effect, 100 complete control; for Plant response rating, Corn: 500 g ai/ha, visual injury, 0 to 100 scale (0 no effect, 100 complete control)
Outline: as §2

wheat [20] = test: Test A preemergence; type: in vivo, Triticum aestivum; conditions: 0 to 100 scale
Outline: as §2

pigweed, palmer [21] = test: Test A preemergence; type: in vivo, Amaranthus palmeri; conditions: 0 to 100 scale
Outline: as §2

ryegrass, Italian [22] = test: Test A postemergence; type: in vivo, Lolium multiflorum; conditions: postemergence, 10 days; for Ryegrass, Italian plant response rating: 125 g ai/ha, 0 to 100 scale, 0 no effect, 100 complete control; for Plant response rating, Ryegrass, Italian: 500 g ai/ha, visual injury, 0 to 100 scale (0 no effect, 100 complete control)
Outline: as §2

sedge, umbrella = test: Test B flooded paddy test; type: in vivo, Cyperus difformis; conditions: 250 g ai/ha, Flood, 13 days, 0 to 100 scale (0 no effect, 100 complete control)
Outline: as §1

barnyardgrass [23] = test: Test A preemergence; type: in vivo, Echinochloa crusgalli; conditions: visual injury after 10 days, 0 to 100 scale, 0 is no effect, 100 is complete control
Outline: as §2

[24] = 125 g ai/ha, visual injury after 10 days, 0 is no effect, 100 is complete control
[25] = 500 g ai/ha, visual injury after 10 days, 0 is no effect, 100 is complete control

C[C@H]1CN(C(=O)c2cc(Br)cc(-n3cncn3)c2)c2cccc(Cl)c2O1 [Compound 114]
10: Barnyardgrass plant response rating (barnyardgrass [9]) | Wheat plant response rating (wheat [18])
40: Pigweed, Palmer plant response rating (pigweed, palmer [6]) | Plant response rating, Oat, Wild (oat, wild [7]) | Kochia plant response rating (kochia [13]) | Plant response rating, Wheat (wheat [18])
80: Plant response rating, Foxtail, Giant (foxtail, giant [2]; [24]) | Plant response rating, Kochia (kochia [13]) | Plant response rating, Corn (corn [19])
0: Plant response rating, Barnyardgrass (barnyardgrass [1]) | Ragweed plant response rating (ragweed [4]) | Plant response rating, Ragweed (ragweed [4]) | Plant response rating, Soybean (soybean [5]; [24]) | Plant response rating, Soybean (soybean [5]; [25]) | Oat, Wild plant response rating (oat, wild [7]) | Horseweed plant response rating (horseweed) | Plant response rating, Horseweed (horseweed) | Plant response rating, Oat, Wild (oat, wild [10]; [24]) | Plant response rating, Ducksalad (ducksalad) | Plant response rating, Kochia (kochia [11]; [24]) | Plant response rating, Rice (rice) | Plant response rating, Ragweed (ragweed [14]; [24]) | Plant response rating, Ragweed (ragweed [14]; [25]) | Plant response rating, Corn (corn [16]; [24]) | Plant response rating, Corn (corn [16]; [25]) | Plant response rating, Sedge, Umbrella (sedge, umbrella)
20: Plant response rating, Oat, Wild (oat, wild [10]; [25]) | Plant response rating, Kochia (kochia [11]; [25]) | Plant response rating, Wheat (wheat [20]; [24])
30: Plant response rating, Blackgrass (blackgrass [12]; [24]) | Plant response rating, Barnyardgrass (barnyardgrass [23]; 125 g ai/ha)
70: Plant response rating, Galium (galium) | Plant response rating, Barnyardgrass (barnyardgrass [9]) | Plant response rating, Blackgrass (blackgrass [12]; [25]) | Foxtail, Giant plant response rating (foxtail, giant [15]) | Plant response rating, Ryegrass, Italian (ryegrass, Italian [22])
50: Plant response rating, Ryegrass, Italian (ryegrass, Italian [3]; [24]) | Blackgrass plant response rating (blackgrass [8]) | Corn plant response rating (corn [19]) | Plant response rating, Wheat (wheat [20]; [25]) | Plant response rating, Pigweed, Palmer (pigweed, palmer [21]; [24]) | Ryegrass, Italian plant response rating (ryegrass, Italian [22])
90: Plant response rating, Ryegrass, Italian (ryegrass, Italian [3]; [25]) | Plant response rating, Blackgrass (blackgrass [8]) | Plant response rating, Foxtail, Giant (foxtail, giant [15]) | Plant response rating, Pigweed, Palmer (pigweed, palmer [21]; [25]) | Plant response rating, Barnyardgrass (barnyardgrass [23]; 500 g ai/ha)
60: Galium plant response rating (galium) | Soybean plant response rating (soybean [17])
100: Plant response rating, Foxtail, Giant (foxtail, giant [2]; [25]) | Plant response rating, Pigweed, Palmer (pigweed, palmer [6]) | Plant response rating, Soybean (soybean [17])

Cc1cccc2c1OC(C(F)(F)F)CN2C(=O)c1ccnc(-n2cncn2)c1 (centres unmarked) [Compound 144]
80: Plant response rating, Blackgrass (blackgrass [12]; [25]) | Foxtail, Giant plant response rating (foxtail, giant [15])
10: Kochia plant response rating (kochia [13]) | Plant response rating, Pigweed, Palmer (pigweed, palmer [21]; 125 g ai/ha)
20: Pigweed, Palmer plant response rating (pigweed, palmer [6]) | Barnyardgrass plant response rating (barnyardgrass [9]) | Wheat plant response rating (wheat [18])
70: Galium plant response rating (galium) | Blackgrass plant response rating (blackgrass [8]) | Plant response rating, Corn (corn [19])
0: Plant response rating, Barnyardgrass (barnyardgrass [1]) | Ragweed plant response rating (ragweed [4]) | Plant response rating, Ragweed (ragweed [4]) | Plant response rating, Soybean (soybean [5]; 125 g ai/ha) | Oat, Wild plant response rating (oat, wild [7]) | Horseweed plant response rating (horseweed) | Plant response rating, Horseweed (horseweed) | Plant response rating, Kochia (kochia [11]; 125 g ai/ha) | Plant response rating, Rice (rice) | Plant response rating, Ragweed (ragweed [14]; 125 g ai/ha)
30: Plant response rating, Oat, Wild (oat, wild [10]; 125 g ai/ha) | Plant response rating, Ragweed (ragweed [14]; [25]) | Plant response rating, Corn (corn [16]; 125 g ai/ha) | Plant response rating, Wheat (wheat [20]; 125 g ai/ha)
60: Plant response rating, Oat, Wild (oat, wild [10]; [25]) | Plant response rating, Kochia (kochia [11]; [25]) | Plant response rating, Kochia (kochia [13]) | Plant response rating, Wheat (wheat [18]) | Plant response rating, Sedge, Umbrella (sedge, umbrella)
50: Plant response rating, Blackgrass (blackgrass [12]; 125 g ai/ha) | Plant response rating, Corn (corn [16]; [25]) | Plant response rating, Wheat (wheat [20]; [25]) | Ryegrass, Italian plant response rating (ryegrass, Italian [22]) | Plant response rating, Barnyardgrass (barnyardgrass [23]; 125 g ai/ha)
90: Plant response rating, Ryegrass, Italian (ryegrass, Italian [3]; 125 g ai/ha) | Plant response rating, Blackgrass (blackgrass [8]) | Plant response rating, Barnyardgrass (barnyardgrass [9]) | Plant response rating, Foxtail, Giant (foxtail, giant [15]) | Plant response rating, Ryegrass, Italian (ryegrass, Italian [22]) | Plant response rating, Barnyardgrass (barnyardgrass [23]; 500 g ai/ha)
65: Plant response rating, Ducksalad (ducksalad)
40: Plant response rating, Pigweed, Palmer (pigweed, palmer [6]) | Plant response rating, Oat, Wild (oat, wild [7]) | Corn plant response rating (corn [19])
100: Plant response rating, Foxtail, Giant (foxtail, giant [2]; 125 g ai/ha) | Plant response rating, Foxtail, Giant (foxtail, giant [2]; [25]) | Plant response rating, Ryegrass, Italian (ryegrass, Italian [3]; [25]) | Plant response rating, Galium (galium) | Plant response rating, Soybean (soybean [5]; [25]) | Soybean plant response rating (soybean [17]) | Plant response rating, Soybean (soybean [17]) | Plant response rating, Pigweed, Palmer (pigweed, palmer [21]; [25])
